# Reference: US10695337B2, “Piperidin-4-yl azetidine derivatives as JAK1 inhibitors” (Incyte Corporation, priority 2010, dated 2020)
# Target: human JAK1 (a.a. 837-1142)
# Assay: In vitro JAK kinase assay (HTRF, phosphorylation of a biotinylated peptide), JAK1
# Format: biochemical
# Conditions: measured at 1 mM ATP; JAK2 IC50 / JAK1 IC50
# Description: Compounds herein were tested for inhibitory activity of JAK targets according to the following in vitro assay described in Park et al., Analytical Biochemistry 1999, 269, 94-104. The catalytic domains of human JAK1 (a.a. 837-1142), Jak2 (a.a. 828-1132) and Jak3 (a.a. 781-1124) with an N-terminal His tag were expressed using baculovirus in insect cells and purified. The catalytic activity of JAK1, JAK2 or JAK3 was assayed by measuring the phosphorylation of a biotinylated peptide. The phosphorylated peptide was detected by homogenous time resolved fluorescence (HTRF). […] Reactions were carried out at room temperature for 1 hr and then stopped with 20 μL 45 mM EDTA, 300 nM SA-APC, 6 nM Eu-Py20 in assay buffer (Perkin Elmer, Boston, Mass.). Binding to the Europium labeled antibody took place for 40 minutes and HTRF signal was measured on a Fusion plate reader (Perkin Elmer, Boston, Mass.).
row,Compound,IC50 Ratio JAK2/JAK1
1,"N#CCC1(n2cc(-c3ncnc4[nH]ccc34)cn2)CN(C2CCN(C(=O)c3ncco3)CC2)C1 [Example 16, {1-[1-(1,3-oxazol-2-ylcarbonyl)piperidin-4-yl]-3-[4-(7H-pyrrolo[2,3-d]pyrimidin-4-yl)-1H-pyrazol-1-yl]azetidin-3-yl}acetonitrile]",2.5
2,"N#CCC1(n2cc(-c3ncnc4[nH]ccc34)cn2)CN(C2CCN(C(=O)c3cccc(Br)c3)CC2)C1 [Example 20, {1-[1-(3-bromobenzoyl)piperidin-4-yl]-3-[4-(7H-pyrrolo[2,3-d]pyrimidin-4-yl)-1H-pyrazol-1-yl]azetidin-3-yl}acetonitrile]",4.2
3,"N#CCC1(n2cc(-c3ncnc4[nH]ccc34)cn2)CN(C2CCN(C(=O)c3cccc(OC(F)(F)F)c3)CC2)C1 [Example 21, (3-[4-(7H-pyrrolo[2,3-d]pyrimidin-4-yl)-1H-pyrazol-1-yl]-1-{1-[3-(trifluoromethoxy)benzoyl]piperidin-4-yl}azetidin-3-yl)acetonitrile]",3.2
4,"N#CCC1(n2cc(-c3ncnc4[nH]ccc34)cn2)CN(C2CCN(C(=O)c3cccc(C(F)(F)F)c3)CC2)C1 [Example 22, (3-[4-(7H-pyrrolo[2,3-d]pyrimidin-4-yl)-1H-pyrazol-1-yl]-1-{1-[3-(trifluoromethyl)benzoyl]piperidin-4-yl}azetidin-3-yl)acetonitrile]",3.2
5,"N#CCC1(n2cc(-c3ncnc4[nH]ccc34)cn2)CN(C2CCN(C(=O)c3cc(F)cc(C(F)(F)F)c3)CC2)C1 [Example 23, {1-{1-[3-fluoro-5-(trifluoromethyl)benzoyl]piperidin-4-yl}-3-[4-(7H-pyrrolo[2,3-d]pyrimidin-4-yl)-1H-pyrazol-1-yl]azetidin-3-yl}acetonitrile]",6.7
6,"N#CCC1(n2cc(-c3ncnc4[nH]ccc34)cn2)CN(C2CCN(C(=O)c3cc(Cl)cc(Cl)c3)CC2)C1 [Example 24, {1-[1-(3,5-dichlorobenzoyl)piperidin-4-yl]-3-[4-(7H-pyrrolo[2,3-d]pyrimidin-4-yl)-1H-pyrazol-1-yl]azetidin-3-yl}acetonitrile]",6.6
7,"N#CCC1(n2cc(-c3ncnc4[nH]ccc34)cn2)CN(C2CCN(C(=O)c3cccc(F)c3)CC2)C1 [Example 25, {1-[1-(3-fluorobenzoyl)piperidin-4-yl]-3-[4-(7H-pyrrolo[2,3-d]pyrimidin-4-yl)-1H-pyrazol-1-yl]azetidin-3-yl}acetonitrile]",5.8
8,"COc1cc(C(=O)N2CCC(N3CC(CC#N)(n4cc(-c5ncnc6[nH]ccc56)cn4)C3)CC2)ccc1F [Example 26, {1-[1-(4-fluoro-3-methoxybenzoyl)piperidin-4-yl]-3-[4-(7H-pyrrolo[2,3-d]pyrimidin-4-yl)-1H-pyrazol-1-yl]azetidin-3-yl}acetonitrile]",3.3
9,"COc1ccc(F)c(C(=O)N2CCC(N3CC(CC#N)(n4cc(-c5ncnc6[nH]ccc56)cn4)C3)CC2)c1 [Example 27, {1-[1-(2-fluoro-5-methoxybenzoyl)piperidin-4-yl]-3-[4-(7H-pyrrolo[2,3-d]pyrimidin-4-yl)-1H-pyrazol-1-yl]azetidin-3-yl}acetonitrile]",5.1
10,"N#CCC1(n2cc(-c3ncnc4[nH]ccc34)cn2)CN(C2CCN(C(=O)c3cc(F)cc(Cl)c3)CC2)C1 [Example 28, {1-[1-(3-chloro-5-fluorobenzoyl)piperidin-4-yl]-3-[4-(7H-pyrrolo[2,3-d]pyrimidin-4-yl)-1H-pyrazol-1-yl]azetidin-3-yl}acetonitrile]",8.5
11,"N#CCC1(n2cc(-c3ncnc4[nH]ccc34)cn2)CN(C2CCN(C(=O)c3cc(F)cc(Br)c3)CC2)C1 [Example 29, {1-[1-(3-bromo-5-fluorobenzoyl)piperidin-4-yl]-3-[4-(7H-pyrrolo[2,3-d]pyrimidin-4-yl)-1H-pyrazol-1-yl]azetidin-3-yl}acetonitrile]",7.2
12,"N#CCC1(n2cc(-c3ncnc4[nH]ccc34)cn2)CN(C2CCN(C(=O)c3cc(Cl)sc3Cl)CC2)C1 [Example 30, {1-{1-[(2,5-dichloro-3-thienyl)carbonyl]piperidin-4-yl}-3-[4-(7H-pyrrolo[2,3-d]pyrimidin-4-yl)-1H-pyrazol-1-yl]azetidin-3-yl}acetonitrile]",2.8
13,"COc1cccc(C(=O)N2CCC(N3CC(CC#N)(n4cc(-c5ncnc6[nH]ccc56)cn4)C3)CC2)c1 [Example 31, {1-[1-(3-methoxybenzoyl)piperidin-4-yl]-3-[4-(7H-pyrrolo[2,3-d]pyrimidin-4-yl)-1H-pyrazol-1-yl]azetidin-3-yl}acetonitrile]",1.9
14,"COc1c(F)c(F)cc(C(=O)N2CCC(N3CC(CC#N)(n4cc(-c5ncnc6[nH]ccc56)cn4)C3)CC2)c1F [Example 32, {3-[4-(7H-pyrrolo[2,3-d]pyrimidin-4-yl)-1H-pyrazol-1-yl]-1-[1-(2,4,5-trifluoro-3-methoxybenzoyl)piperidin-4-yl]azetidin-3-yl}acetonitrile]",4.4
15,"COc1cc(OC)cc(C(=O)N2CCC(N3CC(CC#N)(n4cc(-c5ncnc6[nH]ccc56)cn4)C3)CC2)c1 [Example 33, {1-[1-(3,5-dimethoxybenzoyl)piperidin-4-yl]-3-[4-(7H-pyrrolo[2,3-d]pyrimidin-4-yl)-1H-pyrazol-1-yl]azetidin-3-yl}acetonitrile]",0.5
16,"N#CCC1(n2cc(-c3ncnc4[nH]ccc34)cn2)CN(C2CCN(C(=O)c3ccc(F)c(Cl)c3)CC2)C1 [Example 34, {1-[1-(3-chloro-4-fluorobenzoyl)piperidin-4-yl]-3-[4-(7H-pyrrolo[2,3-d]pyrimidin-4-yl)-1H-pyrazol-1-yl]azetidin-3-yl}acetonitrile]",6.0
17,"N#CCC1(n2cc(-c3ncnc4[nH]ccc34)cn2)CN(C2CCN(C(=O)c3ccc(F)c(F)c3)CC2)C1 [Example 35, {1-[1-(3,4-difluorobenzoyl)piperidin-4-yl]-3-[4-(7H-pyrrolo[2,3-d]pyrimidin-4-yl)-1H-pyrazol-1-yl]azetidin-3-yl}acetonitrile]",6.9
18,"COc1cc(F)cc(C(=O)N2CCC(N3CC(CC#N)(n4cc(-c5ncnc6[nH]ccc56)cn4)C3)CC2)c1 [Example 36, {1-[1-(3-fluoro-5-methoxybenzoyl)piperidin-4-yl]-3-[4-(7H-pyrrolo[2,3-d]pyrimidin-4-yl)-1H-pyrazol-1-yl]azetidin-3-yl}acetonitrile]",2.3
19,"COc1cc(C(=O)N2CCC(N3CC(CC#N)(n4cc(-c5ncnc6[nH]ccc56)cn4)C3)CC2)cc(Cl)n1 [Example 37, {1-[1-(2-chloro-6-methoxyisonicotinoyl)piperidin-4-yl]-3-[4-(7H-pyrrolo[2,3-d]pyrimidin-4-yl)-1H-pyrazol-1-yl]azetidin-3-yl}acetonitrile]",2.1
20,"COc1ccc(F)cc1C(=O)N1CCC(N2CC(CC#N)(n3cc(-c4ncnc5[nH]ccc45)cn3)C2)CC1 [Example 38, {1-[1-(5-fluoro-2-methoxybenzoyl)piperidin-4-yl]-3-[4-(7H-pyrrolo[2,3-d]pyrimidin-4-yl)-1H-pyrazol-1-yl]azetidin-3-yl}acetonitrile]",5.7
21,"COc1cccc(F)c1C(=O)N1CCC(N2CC(CC#N)(n3cc(-c4ncnc5[nH]ccc45)cn3)C2)CC1 [Example 39, {1-[1-(2-fluoro-6-methoxybenzoyl)piperidin-4-yl]-3-[4-(7H-pyrrolo[2,3-d]pyrimidin-4-yl)-1H-pyrazol-1-yl]azetidin-3-yl}acetonitrile]",3.2
22,"COc1cc(F)ccc1C(=O)N1CCC(N2CC(CC#N)(n3cc(-c4ncnc5[nH]ccc45)cn3)C2)CC1 [Example 40, {1-[1-(4-fluoro-2-methoxybenzoyl)piperidin-4-yl]-3-[4-(7H-pyrrolo[2,3-d]pyrimidin-4-yl)-1H-pyrazol-1-yl]azetidin-3-yl}acetonitrile]",4.8
23,"N#CCC1(n2cc(-c3ncnc4[nH]ccc34)cn2)CN(C2CCN(C(=O)c3cccc(F)c3F)CC2)C1 [Example 41, {1-[1-(2,3-difluorobenzoyl)piperidin-4-yl]-3-[4-(7H-pyrrolo[2,3-d]pyrimidin-4-yl)-1H-pyrazol-1-yl]azetidin-3-yl}acetonitrile]",4.9
24,"N#CCC1(n2cc(-c3ncnc4[nH]ccc34)cn2)CN(C2CCN(C(=O)c3ccc(F)cc3F)CC2)C1 [Example 42, {1-[1-(2,4-difluorobenzoyl)piperidin-4-yl]-3-[4-(7H-pyrrolo[2,3-d]pyrimidin-4-yl)-1H-pyrazol-1-yl]azetidin-3-yl}acetonitrile]",6.7
25,"N#CCC1(n2cc(-c3ncnc4[nH]ccc34)cn2)CN(C2CCN(C(=O)c3cc(F)ccc3F)CC2)C1 [Example 43, {1-[1-(2,5-difluorobenzoyl)piperidin-4-yl]-3-[4-(7H-pyrrolo[2,3-d]pyrimidin-4-yl)-1H-pyrazol-1-yl]azetidin-3-yl}acetonitrile]",5.0
26,"N#CCC1(n2cc(-c3ncnc4[nH]ccc34)cn2)CN(C2CCN(C(=O)c3c(F)cccc3F)CC2)C1 [Example 44, {1-[1-(2,6-difluorobenzoyl)piperidin-4-yl]-3-[4-(7H-pyrrolo[2,3-d]pyrimidin-4-yl)-1H-pyrazol-1-yl]azetidin-3-yl}acetonitrile]",2.9
27,"N#CCC1(n2cc(-c3ncnc4[nH]ccc34)cn2)CN(C2CCN(C(=O)c3c(F)cccc3C(F)(F)F)CC2)C1 [Example 45, {1-{1-[2-fluoro-6-(trifluoromethyl)benzoyl]piperidin-4-yl}-3-[4-(7H-pyrrolo[2,3-d]pyrimidin-4-yl)-1H-pyrazol-1-yl]azetidin-3-yl}acetonitrile]",3.1
